Measured values reported in patent US20220047538A1, “TUFT CELL SPECIFICATION IN INFLAMMATORY ILEITIS” (VANDERBILT UNIVERSITY, priority 2019, published 2022).
Where two headings read alike, the source gives them in different places.

Key:
[1] = tested on: TNF^ΔARE/+ model of Crohn's-like ileitis; details: TNFΔARE/+ ileum
Method: Mouse Experiments: All animal protocols were approved by the Vanderbilt University Animal Care and Use Committee and in accordance with NIH guidelines. Lrig1^CreERT2 and Atoh1^flox/flox strains, each in a C57BL/6 background, were purchased from Jackson Laboratory to generate Lrig1^CreERT2/+; Atoh1^fl/fl (AtohKO) animals Cre recombinase activity was induced in two- or three-month-old Lrig1^CreERT2/+; Atoh1^fl/fl and Lrig1^+/+; Atoh1^fl/fl males via intraperitoneal administration of 2 mg of tamoxifen (Sigma-Aldrich) for four consecutive days. Mice were sacrificed and tissues were harvested twenty-one days after the first injection. TNF^ΔARE/+ and wildtype littermates were sacrificed at four months of age after disease onset, followed by tissue collection Animal weights were recorded at regular intervals.
(§1) Mid-dose antibiotics and low-dose antibiotics were 0.75× and 0.25× of the original 1× concentration, respectively.
(§2) Immunofluorescence staining and imaging: Paraffin-embedded ileal tissues were section (5 μm) prior to deparaffinization, rehydration, and antigen retrieval using a citrate buffer (pH 6.0) for 20 minutes in a pressure cooker at 105° C., followed by a 20-minute cool down at room temperature (RT). Endogenous background signal was quenched by incubating tissue slides in 3% hydrogen peroxide for 10 minutes at RT. Tissue sections were blocked in staining buffer (3% bovine serum albumin/10% normal donkey serum) for 1 hour at RT prior to incubation with primary antibody overnight at RT. Antibodies used for immunofluorescence included those against LYZ1 (DAKO, 1:100, rabbit), MUC2 (Santa Cruz, 1:100, rabbit), MPO (DAKO, 1:100, rabbit), DCLK1 (Santa Cruz, 1:100, goat), FOXP3 (eBioscience, 1:50, rat), and GATA3 (Abcam, 1:50, rabbit). Sections were then incubated with AlexaFluor (AF)-555- or AF-647-conjugated secondary antibodies (Life Technologies, 1:500) for 1 hour at RT and Hoechst (1:10,000, Life Technologies) for 10 min at RT. For human tuft cell labeling, AF-488-conjugated pEGFR (Abcam, 1:100) and unconjugated COX2 (CST, 1:100, rabbit) were used. Slides were incubated with anti-rabbit AF-647-conjugated secondary antibody and stained with Hoechst. Imaging was performed using a Zeiss Axio Imager M2 microscope with Axiovision digital imaging system (Zeiss, Jena GmBH, Germany).
Image quantification: To quantify human tuft cells, the number of crypt and villus structures were counted per field of view (FOV) for each subject (approximately 15-20 FOVs per sample). Tuft cell number, as identified by pEGFR and COX co-labeling, was manually counted per FOV in a blinded fashion. Quantification of tuft cell number per epithelial structure (crypt and villus) was generated for each subject and then stratified by disease state (“normal” or “Crohn's disease”) based on the pathology report. Results were analyzed by t-test using Prism GraphPad. For MUC2 quantification, manual demarcation of the epithelial villi was performed in each FOV and a nuclear mask was generated based on Hoechst staining.

cytokine levels = experiment: Multiplex Luminex cytokine levels in short-term succinate-treated TNFΔARE/+ animals
tuft cells = tested on: tuft cells
Method: as §2

[2] = tested on: ATOH1-independent tuft cells; details: antibiotic-treated AtohKO animals; small intestine
Excerpt: as §1

AtohKO enteroids = experiment: IL-13 administration in enteroids; assay type: cell-based, mouse; details: level similar to IL-13 in control enteroids
Method: Enteroid Experiment: Ileal tissue was dissected and incubated in chelation buffer (3 mM EDTA/EGTA, 0.5 mM DTT, 1% P/S) at 4° C. for 45 minutes. The tissue was shaken in PBS and filtered through a 100 μm filter to isolate individual ileal crypts. The crypt suspension was centrifuged at 2.8×1000 RPM for 1½ minutes at 4° C. following which 10 μl of crypt pellet was resuspended in 300 μl of reduced growth factor Matrigel and embedded in a 24-well dish. Enteroids were cultured initially in IntestiCult Organoid Growth Medium (StemCell Technologies) supplemented with Primocin antimicrobial reagent (InvivoGen, 1:1000) for 4 days before being changed to Primocin-supplemented differentiation media. For ex vivo Cre-activation, Lrig1^CreERT2/+ Atoh1^fl/fl enteroids were treated overnight at 37° C. with either 1 μM 4-hydroxytamoxifen (Sigma-Aldrich) or vehicle (ethanol) in differentiation media. Enteroids were passaged the following day into 8-well chamber slides and, after 5 days, were fixed on ice using 4% PFA for immunofluorescence staining.
Enteroid Immunofluorescence Staining: Fixed enteroids were permeabilized with Triton X-100 for 30 min and blocked with 1% normal donkey serum (PBS) for 30 min at RT. Enteroids were stained with primary antibodies against LYZ1 (DAKO, 1:100, rabbit), MUC2 (Santa Cruz, 1:100, rabbit), and DCLK1 (Santa Cruz, 1:100, goat). […]

[3] = short-term succinate vs untreated controls
[4] = succinate-treated intestinal tissues

O=C(O)CCC(=O)O [succinate, succinic acid]
FOXP3+ T-regulatory cells ([1]; long-term (1 month) succinate treatment): significantly reduced | DCLK1+ tuft cells ([1]; succinate-treated): increased | stromal LYZ1 expression ([1]; succinate-treated): less stromal LYZ1 expression | depth of inflammation (0-4), pathological scoring ([1]; succinate-treated vs control): decreased mucosal destruction | extent of tissue injury (0-4), pathological scoring ([1]; succinate-treated vs control): decreased mucosal destruction | IL-17A (cytokine levels; short-term (<1 week) succinate): significant increase | IL-17F (cytokine levels; short-term (<1 week) succinate): significant increase | IL-22 levels (cytokine levels; short-term (<1 week) succinate): increased levels | IL-23 levels (cytokine levels; short-term (<1 week) succinate): significantly reduced | IL-27 expression (cytokine levels; short-term (<1 week) succinate): induced | IL-5 (cytokine levels; short-term succinate): increased | IL-9 (cytokine levels; short-term succinate): increased | IL-10 (cytokine levels; short-term succinate): increased | IL-4 levels (cytokine levels; [3]): significantly increased | IL-13 levels (cytokine levels; [3]): significantly increased | IL-25 levels (cytokine levels; [3]): significantly increased | TNF-α levels (cytokine levels; succinate treatment): did not result in decreased TNF-α levels | expression of Idh3b, Idh3a, Sdha, Sdhd in the tuft cell lineage (TCA cycle genes; exogenous succinate treatment): induced | expression of genes such as Sdhc in the secretory lineage (TCA cycle genes; succinate treatment): significantly reduced | relative expression of Mdh2 and Sdhc in enterocytes (TCA cycle genes; untreated and succinate-treated enterocytes): constitutively high | tuft cell expansion (tuft cells; exogenous succinate administration, small intestine): induces tuft cell expansion | tuft cell expansion in the colon (tuft cells; succinate administration, colon): did not induce tuft cell expansion | GATA3+ cells (tuft cells; [4]): increased | major basic protein-positive eosinophils (tuft cells; [4]): increased | tuft cell expansion [2]: restored tuft cell expansion to microbiome-replete levels | weight gain (TNFΔARE/+ animals, succinate in drinking water): failed to gain as much weight as untreated controls | weight gain (wildtype animals treated with succinate): minimal weight gain

IL-13: type 2 cytokine interleukin-13 administered to enteroids
tuft cell specification and expansion (AtohKO enteroids): induced tuft cell specification and expansion
